# Measured values: article PMC9234961 (Journal of Medicinal Chemistry, 2022)
# “And” between values parts separate entries of the source, which are not always exact repeats. Equal values may be shown once. Read-outs that look alike come from different tables or passages of the source.
# What was measured:
# [1] = target: human BCL6 BTB domain (Homo sapiens, UniProt P41182); test: biochemical; conditions: BCL6 TR-FRET IC50 individual replicates, single replicate values
# [2] = target: DAT (Homo sapiens, UniProt Q01959); test: SAFETYScan Transporter, Blocker; assay type: cell-based
# Chain of DAT (Q01959 whole entry): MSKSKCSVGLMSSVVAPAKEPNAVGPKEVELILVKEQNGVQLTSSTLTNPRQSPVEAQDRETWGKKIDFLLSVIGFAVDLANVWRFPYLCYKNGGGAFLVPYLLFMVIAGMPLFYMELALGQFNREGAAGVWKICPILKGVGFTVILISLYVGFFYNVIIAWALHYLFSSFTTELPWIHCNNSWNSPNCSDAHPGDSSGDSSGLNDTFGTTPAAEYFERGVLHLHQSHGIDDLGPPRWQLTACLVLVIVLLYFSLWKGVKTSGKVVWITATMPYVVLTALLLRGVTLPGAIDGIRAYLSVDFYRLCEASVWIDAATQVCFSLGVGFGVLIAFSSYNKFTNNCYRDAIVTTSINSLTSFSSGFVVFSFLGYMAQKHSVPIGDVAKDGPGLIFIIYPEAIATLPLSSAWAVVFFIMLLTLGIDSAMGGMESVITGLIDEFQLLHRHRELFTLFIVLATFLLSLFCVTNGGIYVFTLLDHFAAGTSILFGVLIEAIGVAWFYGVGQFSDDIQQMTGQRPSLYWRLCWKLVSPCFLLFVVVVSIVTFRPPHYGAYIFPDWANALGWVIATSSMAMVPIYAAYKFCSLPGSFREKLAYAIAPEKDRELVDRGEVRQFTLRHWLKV
# From the text: (§1) Supplement jm1c02175_si_002.xlsx, sheet "SAFETYScan" | column: RC50 (uM); Max Response
# [3] = target: SERT (Homo sapiens, UniProt P31645); test: SAFETYScan Transporter, Blocker; assay type: cell-based
# Chain of SERT (P31645 whole entry): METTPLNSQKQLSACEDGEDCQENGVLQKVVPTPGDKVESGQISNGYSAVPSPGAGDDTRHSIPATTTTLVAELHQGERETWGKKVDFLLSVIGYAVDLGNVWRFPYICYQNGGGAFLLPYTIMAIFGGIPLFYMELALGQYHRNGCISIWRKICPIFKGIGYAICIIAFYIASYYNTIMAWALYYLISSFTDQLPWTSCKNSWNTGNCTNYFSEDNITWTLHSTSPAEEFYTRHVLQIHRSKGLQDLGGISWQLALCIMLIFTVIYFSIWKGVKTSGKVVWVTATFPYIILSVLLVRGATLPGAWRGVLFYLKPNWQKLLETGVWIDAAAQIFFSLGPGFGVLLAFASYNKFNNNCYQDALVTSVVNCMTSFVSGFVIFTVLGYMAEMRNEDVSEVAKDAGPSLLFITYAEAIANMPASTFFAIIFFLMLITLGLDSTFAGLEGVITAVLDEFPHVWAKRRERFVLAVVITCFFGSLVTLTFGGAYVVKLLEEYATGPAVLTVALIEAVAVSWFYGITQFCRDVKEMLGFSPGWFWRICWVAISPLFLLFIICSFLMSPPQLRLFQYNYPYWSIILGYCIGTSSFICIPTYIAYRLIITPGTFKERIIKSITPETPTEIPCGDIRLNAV
# From the text: as §1
# [4] = target: NET (Homo sapiens, UniProt P23975); test: SAFETYScan Transporter, Blocker; assay type: cell-based
# Chain of NET (P23975 whole entry): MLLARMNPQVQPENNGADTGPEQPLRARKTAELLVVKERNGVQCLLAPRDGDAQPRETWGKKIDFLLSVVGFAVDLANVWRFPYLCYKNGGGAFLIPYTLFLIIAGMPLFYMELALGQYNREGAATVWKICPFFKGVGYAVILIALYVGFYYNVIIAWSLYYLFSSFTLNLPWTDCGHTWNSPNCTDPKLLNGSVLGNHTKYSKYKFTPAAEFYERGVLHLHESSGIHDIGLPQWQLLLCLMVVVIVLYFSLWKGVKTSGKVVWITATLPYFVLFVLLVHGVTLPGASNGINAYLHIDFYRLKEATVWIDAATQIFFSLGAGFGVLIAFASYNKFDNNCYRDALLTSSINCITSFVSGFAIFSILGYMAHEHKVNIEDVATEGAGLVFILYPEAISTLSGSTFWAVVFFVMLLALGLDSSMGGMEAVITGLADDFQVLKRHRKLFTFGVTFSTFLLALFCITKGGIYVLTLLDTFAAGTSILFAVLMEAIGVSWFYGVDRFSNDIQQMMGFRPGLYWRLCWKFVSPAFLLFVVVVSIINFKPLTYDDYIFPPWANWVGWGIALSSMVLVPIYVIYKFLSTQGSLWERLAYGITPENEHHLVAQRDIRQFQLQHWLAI
# From the text: as §1
# [5] = target: INSR (Homo sapiens, UniProt P06213); test: SAFETYScan Kinases Binding, Inhibitor
# Chain of INSR (P06213 28-1382, species assumed): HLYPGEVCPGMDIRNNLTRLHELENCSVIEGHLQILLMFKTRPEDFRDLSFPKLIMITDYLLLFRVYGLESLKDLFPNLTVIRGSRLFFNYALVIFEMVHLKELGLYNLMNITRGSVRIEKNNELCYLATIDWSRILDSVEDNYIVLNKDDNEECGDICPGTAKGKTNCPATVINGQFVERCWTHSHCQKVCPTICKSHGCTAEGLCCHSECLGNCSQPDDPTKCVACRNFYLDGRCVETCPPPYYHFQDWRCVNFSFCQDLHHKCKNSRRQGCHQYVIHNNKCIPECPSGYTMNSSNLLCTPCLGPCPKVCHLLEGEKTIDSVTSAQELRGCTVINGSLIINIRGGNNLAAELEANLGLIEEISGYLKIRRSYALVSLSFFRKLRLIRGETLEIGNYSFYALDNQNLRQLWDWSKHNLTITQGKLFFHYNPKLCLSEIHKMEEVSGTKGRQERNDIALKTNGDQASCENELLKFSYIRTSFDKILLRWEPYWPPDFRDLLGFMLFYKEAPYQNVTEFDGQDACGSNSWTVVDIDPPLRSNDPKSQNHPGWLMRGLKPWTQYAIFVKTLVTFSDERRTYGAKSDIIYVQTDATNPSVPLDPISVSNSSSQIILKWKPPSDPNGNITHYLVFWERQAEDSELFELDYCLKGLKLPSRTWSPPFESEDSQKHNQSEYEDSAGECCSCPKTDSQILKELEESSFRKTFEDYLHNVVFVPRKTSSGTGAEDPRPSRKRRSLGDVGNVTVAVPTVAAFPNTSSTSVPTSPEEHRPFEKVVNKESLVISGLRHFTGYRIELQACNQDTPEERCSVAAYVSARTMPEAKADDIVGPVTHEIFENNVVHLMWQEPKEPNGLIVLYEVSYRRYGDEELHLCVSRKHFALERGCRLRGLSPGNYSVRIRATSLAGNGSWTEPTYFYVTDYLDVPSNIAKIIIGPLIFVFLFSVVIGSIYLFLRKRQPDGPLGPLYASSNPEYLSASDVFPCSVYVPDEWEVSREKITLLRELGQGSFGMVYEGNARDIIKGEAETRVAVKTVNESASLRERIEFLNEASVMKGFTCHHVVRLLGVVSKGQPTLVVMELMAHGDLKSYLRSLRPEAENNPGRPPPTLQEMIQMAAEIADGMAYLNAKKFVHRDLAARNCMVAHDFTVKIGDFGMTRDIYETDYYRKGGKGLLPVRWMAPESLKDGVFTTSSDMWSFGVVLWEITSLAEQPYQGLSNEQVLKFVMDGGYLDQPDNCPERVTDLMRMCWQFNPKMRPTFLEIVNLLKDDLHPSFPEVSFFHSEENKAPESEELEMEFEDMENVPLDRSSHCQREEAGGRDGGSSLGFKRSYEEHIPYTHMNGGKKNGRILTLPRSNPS
# From the text: as §1
# [6] = target: ROCK1 (Homo sapiens, UniProt Q13464); test: SAFETYScan Kinases Binding, Inhibitor
# From the text: as §1
# [7] = target: LCK (Homo sapiens, UniProt P06239); test: SAFETYScan Kinases Binding, Inhibitor
# Chain of LCK (P06239 whole entry, species assumed): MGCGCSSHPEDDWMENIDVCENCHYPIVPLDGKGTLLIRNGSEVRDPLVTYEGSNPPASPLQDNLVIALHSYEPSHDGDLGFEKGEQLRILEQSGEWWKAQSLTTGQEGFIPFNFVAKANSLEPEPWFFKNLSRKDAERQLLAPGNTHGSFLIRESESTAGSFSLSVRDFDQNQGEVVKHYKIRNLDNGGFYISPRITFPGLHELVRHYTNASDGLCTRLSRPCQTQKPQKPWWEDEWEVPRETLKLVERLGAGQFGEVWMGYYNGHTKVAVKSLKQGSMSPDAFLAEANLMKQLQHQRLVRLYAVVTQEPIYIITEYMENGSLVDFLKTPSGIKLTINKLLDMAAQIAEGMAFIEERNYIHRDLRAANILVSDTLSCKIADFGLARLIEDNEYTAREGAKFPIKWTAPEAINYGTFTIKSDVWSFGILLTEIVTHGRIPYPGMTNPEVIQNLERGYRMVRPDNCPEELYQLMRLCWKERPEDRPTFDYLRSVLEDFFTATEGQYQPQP
# From the text: as §1
# [8] = target: VEGFR2 (Homo sapiens, UniProt P35968); test: SAFETYScan Kinases Binding, Inhibitor
# Chain of VEGFR2 (P35968 20-1356, species assumed): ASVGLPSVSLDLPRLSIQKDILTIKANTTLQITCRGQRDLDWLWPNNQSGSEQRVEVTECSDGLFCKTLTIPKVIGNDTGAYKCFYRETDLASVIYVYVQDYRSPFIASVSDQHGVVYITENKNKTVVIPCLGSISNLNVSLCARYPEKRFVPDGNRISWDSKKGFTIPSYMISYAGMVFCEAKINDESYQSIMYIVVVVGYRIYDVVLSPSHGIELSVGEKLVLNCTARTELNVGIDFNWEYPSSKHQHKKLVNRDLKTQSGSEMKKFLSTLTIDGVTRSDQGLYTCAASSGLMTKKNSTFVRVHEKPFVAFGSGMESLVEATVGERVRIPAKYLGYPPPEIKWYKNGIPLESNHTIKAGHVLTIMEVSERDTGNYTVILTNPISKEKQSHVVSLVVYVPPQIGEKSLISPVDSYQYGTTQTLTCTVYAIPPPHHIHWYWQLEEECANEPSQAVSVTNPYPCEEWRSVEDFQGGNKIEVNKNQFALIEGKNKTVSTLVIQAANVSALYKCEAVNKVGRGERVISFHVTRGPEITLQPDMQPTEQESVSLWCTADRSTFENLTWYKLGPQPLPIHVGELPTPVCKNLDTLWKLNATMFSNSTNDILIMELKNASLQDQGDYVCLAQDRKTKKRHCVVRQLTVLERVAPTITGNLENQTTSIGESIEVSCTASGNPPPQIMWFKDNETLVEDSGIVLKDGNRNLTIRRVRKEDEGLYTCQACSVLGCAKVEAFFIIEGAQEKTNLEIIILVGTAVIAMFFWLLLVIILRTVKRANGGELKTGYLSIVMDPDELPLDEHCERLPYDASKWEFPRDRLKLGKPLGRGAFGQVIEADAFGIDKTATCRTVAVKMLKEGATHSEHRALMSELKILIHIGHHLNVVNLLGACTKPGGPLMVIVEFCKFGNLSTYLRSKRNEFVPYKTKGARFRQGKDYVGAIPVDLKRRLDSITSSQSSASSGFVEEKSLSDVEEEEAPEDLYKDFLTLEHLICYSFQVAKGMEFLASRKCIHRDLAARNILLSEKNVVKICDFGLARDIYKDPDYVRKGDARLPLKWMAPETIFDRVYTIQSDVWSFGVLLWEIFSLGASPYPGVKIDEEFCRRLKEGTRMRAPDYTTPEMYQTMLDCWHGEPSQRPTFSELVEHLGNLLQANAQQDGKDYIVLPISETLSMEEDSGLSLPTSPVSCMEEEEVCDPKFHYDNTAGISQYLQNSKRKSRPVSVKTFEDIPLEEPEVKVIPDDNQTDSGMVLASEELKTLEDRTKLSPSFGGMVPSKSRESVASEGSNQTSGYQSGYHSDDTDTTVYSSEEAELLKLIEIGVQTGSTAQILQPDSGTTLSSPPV
# From the text: as §1
# [9] = target: endogenous BCL6 in OCI-Ly1 cells (Homo sapiens, UniProt P41182); test: cell-based
# [10] = target: T1, GR (Homo sapiens, UniProt P04150); test: SAFETYScan NHR Protein Interaction, Antagonist; assay type: cell-based
# T1 sequence (P04150 1-777): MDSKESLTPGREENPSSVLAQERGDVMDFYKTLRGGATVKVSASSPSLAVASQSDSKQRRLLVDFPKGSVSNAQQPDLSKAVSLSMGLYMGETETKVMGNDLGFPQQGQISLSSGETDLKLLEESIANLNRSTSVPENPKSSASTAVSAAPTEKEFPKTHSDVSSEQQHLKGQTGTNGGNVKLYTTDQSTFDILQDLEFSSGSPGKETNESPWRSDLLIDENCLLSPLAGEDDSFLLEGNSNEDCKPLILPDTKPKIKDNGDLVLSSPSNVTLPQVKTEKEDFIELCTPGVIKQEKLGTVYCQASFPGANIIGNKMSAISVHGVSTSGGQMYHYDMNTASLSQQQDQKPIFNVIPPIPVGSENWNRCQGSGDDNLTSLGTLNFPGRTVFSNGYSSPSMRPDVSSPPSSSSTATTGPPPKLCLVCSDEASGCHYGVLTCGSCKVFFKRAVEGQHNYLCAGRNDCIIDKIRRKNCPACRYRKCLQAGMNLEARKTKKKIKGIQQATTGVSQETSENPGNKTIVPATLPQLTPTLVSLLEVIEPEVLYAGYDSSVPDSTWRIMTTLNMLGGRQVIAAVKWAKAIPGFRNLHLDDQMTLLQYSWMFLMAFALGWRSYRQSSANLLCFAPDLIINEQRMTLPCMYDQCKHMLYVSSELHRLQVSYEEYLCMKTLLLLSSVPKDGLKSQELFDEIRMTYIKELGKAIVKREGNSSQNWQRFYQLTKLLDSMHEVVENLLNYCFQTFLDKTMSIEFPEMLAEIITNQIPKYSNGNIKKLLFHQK
# From the text: as §1
# [11] = system: HT DLBCL xenograft; test: Efficacy study in HT DLBCL xenograft model; assay type: in vivo, mouse
# Method: single treatment of vehicle.
# 7.3.3 Preparation of HT Cells […]
# subcultured 1:4 every 3-4 days. […]
# pharmacokinetic analysis (PK).
# 7.3.6 Tumour lysis and Wes method
# Lysates were incubated on
# Samples were stored at -80 °C until use.
# Data was analysed using Compass for SW software. BCL6
# [12] = logD7.4 assay (Chrom log D method); assay type: physicochemical; conditions: reversed-phase HPLC on Phenomenex Luna C8 column, pH 7.4, read-out: Measured logD7.4
# How it was run: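 Samples at 1mM in 10% DMSO/90% Trizma buffer (100mM Trizma in 75/25 methanol/water) injected onto a C8 column at 30°C under gradient elution at 2 mL/min. Retention calibrated against calibration and validation standards.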
# [13] = system: SU-DHL-4; test: Cell proliferation assay (14 days), SU-DHL-4
# Method: (§2) Cells were seeded in 96-well culture plates at a density of 2500 cells/well in RPMI-1640 medium (Sigma-
# (§3) Aldrich) supplemented with 10% FBS (Gibco). Compounds were initially dispensed into 96-well U-bottom
# (§4) plates using an Echo 550 acoustic dispenser (Labcyte Inc.), then diluted in RPMI-1640 medium and
# (§5) transferred onto the cells. Cells were treated with 8 compound concentrations in duplicate, ranging from
# (§6) with compound for 14 days, with medium changes at days 3, 7 and 10 carried out as follows: fresh 96-well
# (§7) cell culture plates were prepared containing 100 µl medium plus compound at the assay concentrations
# (§8) (white plates were used on day 10 to optimise luminescence measurement). Assay plates containing cells
# (§9) were vortexed to mix and cell density in one control well was counted using a Coulter Z2 cell counter
# (§10) (Beckman Coulter). The volume of medium containing 2500 cells in the control well was calculated and this volume of cells was transferred from every well of the assay plates to the corresponding well of the fresh plates containing compound. After 14 days, CellTiter Glo reagent (Promega) was added to the medium in each well of the assay plate at a ratio of 1:2, mixed on a plate shaker, then incubated at room temperature for 10 minutes. Luminescence was measured using an Envision plate reader (Perkin Elmer) and the relative luminescence at each compound concentration, compared to DMSO alone, was calculated. GI50 were determined using a 4-parameter curve fit in Dotmatics (Bishops Stortford, UK).
# [14] = in vitro; assay type: in vitro ADME; conditions: BALB/c; mouse plasma, rapid equilibrium dialysis; read-out: mouse (BALB\c) PPB (converted)
# [15] = system: OCI-Ly3; test: Cell proliferation assay (14 days), OCI-Ly3
# Method: as §2, §3, §4, §5, §6, §7, §8, §9, §10
smiles,measurement,setting,value
"C[C@H]1C[C@@H](O)CN(c2ncc(Cl)c(Nc3ccc4c(c3)c3c(c(=O)n4C)OCC(F)(F)[C@H](C4CC4)N3)n2)C1 [12a CCT373566, (S)-10-((5-Chloro-2-((3R,5S)-3-hydroxy-5-methylpiperidin-1-yl)pyrimidin-4-yl)amino)-2-cyclopropyl-3,3-difluoro-7-methyl-1,2,3,4-tetrahydro-[1,4]oxazepino[2,3-c]quinolin-6(7H)-one]",IC50,[1],3.8 nM and 1.9 nM and 1.7 nM and 2.6 nM (3×) and 2.4 nM and 2.9 nM and 1.8 nM (3×) and 1.2 nM and 2.7 nM
same,Emax,[2]; read-out: Max Response,0%
same,IC50,[2]; read-out: RC50 (IC50),> 10 µM
same,Emax,[3]; read-out: Max Response,0%
same,IC50,[3]; read-out: RC50 (IC50),> 10 µM
same,Emax,[4]; read-out: Max Response,8.36%
same,IC50,[4]; read-out: RC50 (IC50),> 10 µM
same,Emax,[5]; read-out: Max Response,0%
same,IC50,[5]; read-out: RC50 (IC50),> 10 µM
same,Emax,[6]; read-out: Max Response,14.9%
same,IC50,[6]; read-out: RC50 (IC50),> 10 µM
same,Emax,[7]; read-out: Max Response,1.52%
same,IC50,[7]; read-out: RC50 (IC50),> 10 µM
same,Emax,[8]; read-out: Max Response,15.8%
same,IC50,[8]; read-out: RC50 (IC50),> 10 µM
same,Dmax,"[9]; OCI-Ly1, read-out: MSD degrader assay [OCI-LY1] Dmax individual replicates, single replicate values",89.8%
same,Dmax,"[9]; OCI-Ly1, read-out: MSD degrader assay [OCI-Ly1] Dmax, mean maximal degradation of BCL6, OCI-Ly1 cells, 2 h",91.5%
same,degradation of BCL6 (in words),[9]; OCI-Ly1 MSD assay,potently degrading isomer
same,MSD degrader assay [OCI-Ly1] DC50,"[9]; geometric mean, OCI-Ly1 cells, 2 h incubation",sub-nanomolar
same,MSD degrader assay [OCI-Ly1] Dmax,"[9]; mean maximal degradation of BCL6, OCI-Ly1 cells, 2 h",> 90%
same,MSD degrader assay [OCI-LY1] pDC50 mean,[9]; mean of replicates,9.1465
same,DC50,"[9]; read-out: Calculated free DC50 [OCI-Ly1], DC50 corrected with fu,media",0.088 nM
same,DC50,"[9]; read-out: MSD degrader assay [OCI-LY1] DC50 individual replicates, single replicate values",1 nM and 0.9 nM (4×) and 1.5 nM and 0.5 nM (2×) and 0.8 nM and 1.2 nM and 0.3 nM and 0.6 nM (3×) and 0.4 nM (2×) and 1.3 nM
same,DC50,"[9]; read-out: MSD degrader assay [OCI-Ly1] DC50, geometric mean, OCI-Ly1 cells, 2 h incubation",0.7 nM
same,MSD degrader assay [OCI-LY1] Dmax individual replicates,[9]; single replicate values,90.3% and 91.7% and 95.3% (2×) and 94.5% and 93.1% and 94.4% and 94.1% and 92.7% and 96.2% and 84.1% and 84.0% and 89.6% and 88.7% and 89.5% and 92.4%
same,Emax,[10]; read-out: Max Response,2.11%
same,IC50,[10]; read-out: RC50 (IC50),> 10 µM
same,T/C,"[11]; 50 mg/kg BID, 22 days",60%
same,BCL6 levels after the last dose,"[11]; 50 mg/kg po bid for 22 days, 4 h and 12 h after last dose",remained decreased 4 h and 12 h after the last dose
same,body weight,"[11]; 50 mg/kg po bid, 22 days",No body weight losses were observed
same,tumor growth compared to the vehicle control group,"[11]; 50 mg/kg po bid, 22 days",modest decrease in tumor growth
same,chromatographic logD,[12],3
same,SU-DHL-4 GI50,[13]; 14-day proliferation assay,Very potent growth inhibition
same,GI50,"[13]; Homo sapiens, SU-DHL-4, 336 h, read-out: SU-DHL-4 GI50",0.0125 µM
same,fraction unbound,[14],0.0012
same,OCI-Ly3 GI50,"[15]; 14-day proliferation assay, BCL6 low-expressing cell line",not seen
same,GI50,"[15]; Homo sapiens, OCI-Ly3, 336 h, read-out: OCI-Ly3 GI50",1.9 µM
